In patent US9161946B2, “Dosing methods for treating disease” (Anadys Pharmaceuticals, Inc., priority 2007, dated 2015):

Key:
Type in all cases: in vivo, cynomolgus macaques
[1] = test system: B cell in peripheral blood leukocytes; experiment: B cell proliferative state, flow cytometry of Ki67; details: 3 on 4 off schedule, repeated courses, FIG. 4B (100 mg/kg)
Procedure: (§1) The pharmacodynamic response of a continuous daily dosing schedule (QD) was compared to a cyclic dosing schedule of every-other-day (QOD) and a cyclic dosing schedule of 3 consecutive days of dosing followed by 4 consecutive days of resting (‘3 on 4 off’). All three dosing schedules were conducted with orally administered Compound I Tosylate. Immune parameters measured include cytokine and chemokine secretion in plasma measured by multiplexed immunoassay, neopterin levels in plasma measured by Enzyme Linked Immunosorbant Assay (ELISA), and cytotoxic T cell (CD8 T) effector proliferative state and B cell proliferative state in peripheral blood leukocytes as measured by flow cytometry analysis of Ki67 levels.
(§2) Cynomolgus macaques were given either 30 mg/kg or 100 mg/kg of Compound I as the tosylate according to a dosing schedule of 3 consecutive days of dosing followed by 4 consecutive days of resting (‘3 on 4 off’) over 3 or 8 weeks. The immune response was determined by measuring cytokine and neopterin levels in plasma, as well as B cell and T cell responses in peripheral blood.

[2] = test system: neopterin; experiment: Neopterin level in plasma, ELISA; details: QD schedule, 7 consecutive days, FIG. 1C (100 mg/kg)
Procedure: as §1
(§3) Cynomolgus macaques were given either 30 mg/kg or 100 mg/kg of Compound I as the tosylate or 2 mg/kg 852A for 7 consecutive days of QD dosing followed by 7 days of additional monitoring. The immune response was determined by measuring cytokine and neopterin levels in plasma, as well as B cell and T cell responses in peripheral blood.

[3] = test system: IFN-α; experiment: IFN-α level in plasma after oral dosing, multiplexed immunoassay; details: for Mean Concentration of IFN-α: oral; for IFN-α levels on the third day of the cycle: 3 on 4 off, 100 mg/kg, average±SEM, n=4
Procedure: as §1
Cynomolgus macaques were given 10, 30, 100 or 300 mg/kg (Compound I equivalents) of Compound I Tosylate according to an every-other-day dosing schedule for 14 days, 28 days, or 13 weeks followed by recovery periods of various lengths. The immune response was determined by measuring cytokine and neopterin levels in plasma, as well as B cell and T cell responses in peripheral blood.
as §2, §3

[4] = test system: cytotoxic T cell (CD8 T) in peripheral blood leukocytes; experiment: Cytotoxic T cell (CD8 T) effector proliferative state, flow cytometry of Ki67; details: 3 on 4 off schedule, FIG. 3B (100 mg/kg)
Procedure: as §1, §2

[5] = test system: TNF-α; experiment: TNF-α in plasma after 3rd dose, multiplexed immunoassay; details: after 3rd dose of 100 mg/kg, QD (D3) versus QOD (D5)
Source text: (§4) Each point indicates an individual animal. Fine lines indicate geometric mean. * indicates significant difference (p<0.05) between pre-treatment and post-dose values; ns: not significant. Non-responders are defined as animals with baseline interferon-α values after both the 1st and 2nd doses. Three such animals were excluded in the QOD group (n=7 final). No animals were excluded from the QD group (n=20 final).
as §1, with “All three dosing schedules were conducted with orally administered Compound I Tosylate.” left out, “levels. […]” for “levels.”
as §3

[6] = test system: IL-12; experiment: IL-12 in plasma after 3rd dose, multiplexed immunoassay; details: after 3rd dose of 100 mg/kg, pre-treatment subtracted, p<0.05
Source text: as §4
as §1, with “All three dosing schedules were conducted with orally administered Compound I Tosylate.” left out, “levels. […]” for “levels.”
as §3

[7] = test system: MCP-1; experiment: MCP-1 in plasma after 3rd dose, multiplexed immunoassay; details: after 3rd dose of 100 mg/kg, pre-treatment subtracted, p<0.05
Source text: as §4
as §1, with “All three dosing schedules were conducted with orally administered Compound I Tosylate.” left out, “levels. […]” for “levels.”
as §3

[8] = test system: IL-6; experiment: IL-6 in plasma after 3rd dose, multiplexed immunoassay; details: after 3rd dose of 100 mg/kg
Source text: as §4
as §1, with “All three dosing schedules were conducted with orally administered Compound I Tosylate.” left out, “levels. […]” for “levels.”
as §3

[9] = QD schedule, 100 mg/kg per dose, p<0.05

With `CC(=O)O[C@@H]1C[C@@H](CO)O[C@H]1n1c(=O)sc2cnc(N)nc21.Cc1ccc(S(=O)(=O)O)cc1` [Compound I Tosylate] the “B cell proliferative state as measured by Ki67 levels” value [1] was “enhanced”, the “Time of peak neopterin level before decline” value [2] was 3-4 days of dosing and the “IFN-α level at day 7 for QOD higher than on day 7 for QD” value ([3]; 100 mg/kg per dose, p<0.05) was 15.8 fold. For the same molecule, the “IFN-α levels in plasma after 6 doses” value ([3]; 3 on 4 off schedule, day 3 in the second cycle, 100 mg/kg (Compound I equivalents)) was 3832±1329, the “IFN-α response on day 7 lower than response on day 1” value ([3]; QD schedule, 100 mg/kg per dose) was 3.3 fold and the “IFN-α levels on day 5 compared to day 3” value [3, 9] was “significantly reduced”. For the same molecule, the “IFN-α levels on day 7 compared to day 3” value [3, 9] was “significantly reduced”, the “Time of peak IFN-α level before decline” value ([3]; QD schedule, 7 consecutive days, FIG. 1C (100 mg/kg)) was 3-4 days of dosing and the “IFN-α levels in plasma after 6 doses” value ([3]; QD schedule, Day 6, 100 mg/kg (Compound I equivalents)) was 922±739. The “T cell responses over repeated courses” value [4] was “either maintained or enhanced”.

With `CC(=O)O[C@@H]1C[C@@H](CO)O[C@H]1n1c(=O)sc2cnc(N)nc21` [Compound I, 5-amino-3-(2′-O-acetyl-3′-deoxy-beta-D-ribofuranosyl)-3H-thiazolo[4,5-d]pyrimidin-2-one] the “TNF-α induction versus pre-treatment” value [5] was “significantly induced (p<0.05) by the QD, but not by the QOD schedule”, the “Level of IL-12 expressed relative to IFN-α, QD compared to QOD” value [6] was “significantly higher” and the “Level of MCP-1 expressed relative to IFN-α, QD compared to QOD” value [7] was “significantly higher”. For the same molecule, the “Mean Concentration of IFN-α” value ([3]; 3 on 4 off schedule, Day 1, 100 mg/kg per dose as tosylate salt, 3 hours after dosing, mean ± SEM, pre-treatment subtracted) was 175 ± 69 pg/mL, the “Mean Concentration of IFN-α” value ([3]; 3 on 4 off schedule, Day 3, 100 mg/kg per dose as tosylate salt, 3 hours after dosing, mean ± SEM, pre-treatment subtracted) was 4192 ± 768 pg/mL and the “Mean Concentration of IFN-α” value ([3]; 3 on 4 off schedule, Day 5 (resting day, no dose), 100 mg/kg per dose as tosylate salt) was “Baseline*”. For the same molecule, the “Mean Concentration of IFN-α” value ([3]; 3 on 4 off schedule, Day 7 (resting day, no dose), 100 mg/kg per dose as tosylate salt) was “Baseline*”, the “IFN-α levels on the third day of the cycle” value (“IFN-α levels on the third day” below) ([3]; first cycle) was 4192±768 and the “IFN-α levels on the third day” value ([3]; second cycle) was 3832±1329. The “IFN-α levels on the third day” value ([3]; third cycle) was 3879±1140, the “Mean Concentration of IFN-α” value ([3]; QD schedule, Day 1, 100 mg/kg per dose as tosylate salt, 3 hours after dosing, mean ± SEM, pre-treatment subtracted) was 498 ± 252 pg/mL and the “Mean Concentration of IFN-α” value ([3]; QD schedule, Day 3, 100 mg/kg per dose as tosylate salt, 3 hours after dosing, mean ± SEM, pre-treatment subtracted) was 8057 ± 1566 pg/mL. The “Mean Concentration of IFN-α” value ([3]; QD schedule, Day 5, 100 mg/kg per dose as tosylate salt, 3 hours after dosing, mean ± SEM, pre-treatment subtracted) was 2166 ± 615 pg/mL, the “Mean Concentration of IFN-α” value ([3]; QD schedule, Day 7, 100 mg/kg per dose as tosylate salt, 3 hours after dosing, mean ± SEM, pre-treatment subtracted) was 151 ± 105 pg/mL and the “Mean Concentration of IFN-α” value ([3]; QOD schedule, Day 1, 100 mg/kg per dose as tosylate salt, 3 hours after dosing, mean ± SEM, pre-treatment subtracted) was 1293 ± 513 pg/mL. The “Mean Concentration of IFN-α” value ([3]; QOD schedule, Day 3, 100 mg/kg per dose as tosylate salt, 3 hours after dosing, mean ± SEM, pre-treatment subtracted) was 1459 ± 634 pg/mL, the “Mean Concentration of IFN-α” value ([3]; QOD schedule, Day 5, 100 mg/kg per dose as tosylate salt, 3 hours after dosing, mean ± SEM, pre-treatment subtracted) was 1816 ± 1012 pg/mL and the “Mean Concentration of IFN-α” value ([3]; QOD schedule, Day 7, 100 mg/kg per dose as tosylate salt, 3 hours after dosing, mean ± SEM, pre-treatment subtracted) was 2375 ± 982 pg/mL. The “IL-6 induction versus pre-treatment” value ([8]; QD (D3) versus QOD (D5)) was “significantly induced (p<0.05) by the QD, but not by the QOD schedule” and the “Level of IL-6 expressed relative to IFN-α, QD compared to QOD” value ([8]; pre-treatment subtracted, p<0.05) was “significantly higher”.
